Assay results reported in US7326732B2, “EP2 receptor agonists” (Pharmagene Laboratories Limited, priority 2004, dated 2008).

Experiments:
[1] = molecular target: T1, human EP2 receptor (Homo sapiens, UniProt P43116); experiment: Binding ability to human EP receptors ([3H]PGE2 displacement), EP2; conditions: membranes expressing human EP2; [3H]PGE2 3 nM; Cheng-Prusoff; read-out: pKi (M) EP2 (converted)
T1 construct: expressed in transfected cells
Procedure: (§1) Membranes were prepared from cells stably transfected with human EP receptor cDNA. In brief, cells were cultured to confluency, scraped from culture flasks, and centrifuged (800 g, 8 minutes, 4° C.). Cells were twice washed in ice cold homogenisation buffer containing 10 mMTris-HCl, 1 mM EDTA.2Na, 250 mM sucrose, 1 mM PMSF, 0.3 mM indomethacin, pH 7.4, homogenised and re-centrifuged as before. The supernatant was stored on ice and pellets re-homogenised and re-spun. Supernatants were pooled and centrifuged at 40000 g, 10 minutes, 4° C. Resultant membrane pellets were stored at −80° C. until use. For assay, membranes expressing human EP4, EP3, EP2 or EP1 receptors were incubated in Millipore (MHVBN45) plates containing assay buffer, radiolabelled [^3H]PGE2 and 0.1 to 10 000 nM concentrations of compounds. Incubations were performed at suitable temperatures and for suitable times to allow equilibrium to be reached. Non-specific binding was determined in the presence of 10 uM PGE2. Bound and free radiolabel was separated by vacuum manifold filtration using appropriate wash buffers, and bound radiolabel was determined by scintillation counting. Constituents of each of the buffers are included in table 1 below. […] Raven Press, New York, 2nd edition.

[2] = molecular target: T2, human EP3 receptor (Homo sapiens, UniProt P43115); experiment: Binding ability to human EP receptors ([3H]PGE2 displacement), EP3; conditions: membranes expressing human EP3; [3H]PGE2 2.5 nM; Cheng-Prusoff; read-out: pKi (M) EP3 (converted)
T2 construct: expressed in transfected cells
T2 sequence (P43115 1-390): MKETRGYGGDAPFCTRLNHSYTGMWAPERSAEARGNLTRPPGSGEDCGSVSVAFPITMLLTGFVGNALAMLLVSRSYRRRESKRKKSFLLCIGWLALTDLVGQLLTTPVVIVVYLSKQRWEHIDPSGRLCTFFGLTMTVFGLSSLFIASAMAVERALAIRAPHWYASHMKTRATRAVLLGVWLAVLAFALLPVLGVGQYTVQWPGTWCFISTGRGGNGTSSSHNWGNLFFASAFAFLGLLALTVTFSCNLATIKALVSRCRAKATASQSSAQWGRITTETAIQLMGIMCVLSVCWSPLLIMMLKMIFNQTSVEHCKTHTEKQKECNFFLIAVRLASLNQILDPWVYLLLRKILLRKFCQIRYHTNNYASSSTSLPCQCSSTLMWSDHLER
Procedure: as §1

[3] = molecular target: T3, human EP4 receptor (Homo sapiens, UniProt P35408); experiment: Binding ability to human EP receptors ([3H]PGE2 displacement), EP4; conditions: membranes expressing human EP4; [3H]PGE2 1 nM; Cheng-Prusoff; read-out: pKi (M) EP4 (converted)
T3 construct: expressed in transfected cells
T3 sequence (P35408 whole entry): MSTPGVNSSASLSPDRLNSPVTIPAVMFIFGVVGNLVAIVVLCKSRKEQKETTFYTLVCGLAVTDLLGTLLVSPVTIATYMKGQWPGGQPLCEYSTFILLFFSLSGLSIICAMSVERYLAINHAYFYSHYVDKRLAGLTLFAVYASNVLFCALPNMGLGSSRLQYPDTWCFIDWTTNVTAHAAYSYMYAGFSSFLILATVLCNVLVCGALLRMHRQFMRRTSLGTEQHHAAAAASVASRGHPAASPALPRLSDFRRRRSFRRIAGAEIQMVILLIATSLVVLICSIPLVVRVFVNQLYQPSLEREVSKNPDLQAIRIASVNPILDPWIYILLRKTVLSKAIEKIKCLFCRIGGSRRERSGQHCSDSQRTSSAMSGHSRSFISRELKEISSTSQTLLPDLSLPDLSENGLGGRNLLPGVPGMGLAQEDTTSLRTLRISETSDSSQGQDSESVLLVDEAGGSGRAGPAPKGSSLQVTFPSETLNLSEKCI
Procedure: as §1

[4] = molecular target: T4, human EP2 prostanoid receptors (Homo sapiens, UniProt P43116); experiment: Agonist activity at recombinant human EP2 prostanoid receptors (cAMP in HEK-293 clones); assay type: cell-based
T4 construct: expressed in transfected cells; host or cells: HEK-293
T4 sequence (P43116 whole entry): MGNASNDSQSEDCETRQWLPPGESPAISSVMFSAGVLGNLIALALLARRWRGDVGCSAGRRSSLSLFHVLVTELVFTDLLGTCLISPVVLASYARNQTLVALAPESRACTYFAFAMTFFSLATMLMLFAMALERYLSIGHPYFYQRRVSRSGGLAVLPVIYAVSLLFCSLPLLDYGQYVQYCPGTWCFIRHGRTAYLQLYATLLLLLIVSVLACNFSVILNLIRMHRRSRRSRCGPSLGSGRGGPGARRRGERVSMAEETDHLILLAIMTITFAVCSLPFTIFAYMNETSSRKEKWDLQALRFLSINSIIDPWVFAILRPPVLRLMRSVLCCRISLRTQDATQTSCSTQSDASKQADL
Procedure: Culture media was Minimal essential media (MEM), supplemented with 10% foetal bovine serum, 100 U/ml penicillin, […] streptomycin, 2.5 μg/ml fungizone, 2mM glutamine. Cells were cultured to confluency (3-4 days) prior to use. Culture media was removed, and confluent cells washed three times in MEM. […] Cells were then stimulated by the addition of 25 μl of PGE2 or agonists prepared in assay buffer. In antagonist studies, cells were pre-incubated with compounds for 30 minutes prior to PGE2-mediated stimulation Plates were incubated for 15 min at 37° C., before termination of the reaction by the addition of 25 μl 1M HCl. The plate was then frozen at -20° C. overnight before determination of cAMP concentration. Stimulated cAMP levels were determined by radioligand displacement binding. In brief, plates were thawed rapidly in a waterbath, and the samples neutralised by the addition of 25 μl 1M NaOH. 30 μl was transferred to Millipore plates pre-coated with 0.5% Polyethylenimine (PEI). Samples were diluted by addition of 90 μl cAMP determination buffer (50 mM Tris, 5 mM EDTA, pH 7.0). […] 15 μl of 2 nM (final concentration) [^3H] cAMP, and 15 μl of 3'5'-cAMP protein kinase (8 μg/well final concentration) prepared in cAMP determination buffer containing 0.1% BSA, were added to each well. Plates were incubated on ice for 2 hours, before bound and free radiolabel were separated by vacuum filtration harvesting using the Millipore vacuum manifold, using ice cold water as the termination buffer. The sealing mat was removed from the Millipore plates, and the filters allowed to dry overnight. 50 μl Microscint 0 (Packard Bioscience) was added to each well, and the plate counted using the Micro-Beta Trilux topcount ^3H program. cAMP accumulation was determined from the standard curve, and values calculated in pmoles cAMP/well. Antagonists affinities (pA2 values) were determined assuming a slope of unity and the […]-Schild equation, where pA2=log [concentration ratio-1]-log[antagonist].

T1 sequence (P43116 whole entry): as above

Row | Structure (SMILES) | Ki [1] [M] | Ki [2] [M] | Ki [3] [M] | EC50 ([4]; HEK-293 stably transfected with human EP2, cAMP accumulation, read-out: pEC50 EP2 (converted)) [µM] | activity (EP2 part) ([4]; functional classification at EP2)
1 | Cc1ccc(-c2ccc(C(=O)Nc3cccc(CC(=O)O)c3)o2)cc1 [Compound 22, (3-{[5-(4-Methyl-phenyl)-furan-2-carbonyl]-amino}-phenyl)-acetic acid] | < 1e-05 | > 1e-05 | > 1e-05 | – | –
2 | O=C(O)Cc1cccc(NC(=O)c2ccc(-c3ccccc3C(F)(F)F)o2)c1 [Compound 23, (3-{[5-(2-Trifluoromethyl-phenyl)-furan-2-carbonyl]-amino}-phenyl)-acetic acid] | < 1e-05 | > 1e-05 | > 1e-05 | – | –
3 | O=C(O)Cc1cccc(NC(=O)c2ccc(-c3cccc(OC(F)(F)F)c3)o2)c1 [Compound 32, (3-{[5-(3-Trifluoromethoxy-phenyl)-furan-2-carbonyl]-amino}-phenyl)-acetic acid] | < 1e-06 | > 1e-05 | < 1e-05 | – | –
4 | CC(C)c1ccc(-c2ccc(C(=O)Nc3cccc(CC(=O)O)c3)o2)cc1 [Compound 35, (3-{[5-(4-Isopropyl-phenyl)-furan-2-carbonyl]-amino}-phenyl)-acetic acid] | < 1e-05 | > 1e-05 | > 1e-05 | – | –
5 | Cc1cc(-c2ccccc2)ccc1C(=O)Nc1cccc(CC(=O)O)c1 [Compound 47, {3-[(3-Methyl-biphenyl-4-carbonyl)-amino]-phenyl}-acetic acid] | < 1e-06 | > 1e-05 | > 1e-05 | – | –
6 | Cc1cc(C(=O)Nc2cccc(CC(=O)O)c2)sc1-c1ccccc1 [Compound 50, {3-[(4-Methyl-5-phenyl-thiophene-2-carbonyl)-amino]-phenyl}-acetic acid] | < 1e-05 | > 1e-05 | > 1e-05 | – | –
7 | O=C(O)c1ccc2cc(NC(=O)c3ccc(-c4ccccc4)o3)ccc2c1 [Compound 63, 6-[(5-Phenyl-furan-2-carbonyl)-amino]-naphthalene-2-carboxylic acid] | < 1e-05 | > 1e-05 | > 1e-05 | – | –
8 | NC(=O)Cc1cccc(NC(=O)c2ccc(-c3ccccc3)o2)c1 [Compound 73, 5-Phenyl-furan-2-carboxylic acid (3-carbamoylmethyl-phenyl)-amide] | < 1e-05 | > 1e-05 | > 1e-05 | – | –
9 | O=C(Nc1cccc(Cc2nnn[nH]2)c1)c1ccc(-c2ccccc2)o1 [Compound 75, 5-Phenyl-furan-2-carboxylic acid [3-(1H-tetrazol-5-ylmethyl)-phenyl]-amide] | < 1e-07 | > 1e-05 | > 1e-05 | – | –
10 | O=C(O)c1cc2cc(NC(=O)c3ccc(-c4ccccc4)o3)ccc2o1 [Compound 96, 5-[(5-Phenyl-furan-2-carbonyl)-amino]-benzofuran-2-carboxylic acid] | < 1e-06 | > 1e-05 | > 1e-05 | – | –
11 | O=C(O)/C=C/c1cccc(NC(=O)c2ccc(-c3ccc(-c4ccccc4)c(F)c3)o2)c1 [Compound 105, 3-(3-{[5-(2-Fluoro-biphenyl-4-yl)-furan-2-carbonyl]-amino}-phenyl)-acrylic acid] | < 1e-06 | > 1e-05 | > 1e-05 | – | –

The next lines start with the values.

Row | Ki [1] [M] | Ki [2] [M] | Ki [3] [M] | EC50 ([4]; HEK-293 stably transfected with human EP2, cAMP accumulation, read-out: pEC50 EP2 (converted)) [µM] | activity (EP2 part) ([4]; functional classification at EP2) | Structure (SMILES)
12 | < 1e-06 | > 1e-05 | > 1e-05 | – | – | O=C(O)Cc1cccc(NC(=O)c2ccc(-c3cccc(C(F)(F)F)c3)o2)c1 [Compound 24, (3-{[5-(3-Trifluoromethyl-phenyl)-furan-2-carbonyl]-amino}-phenyl)-acetic acid]
13 | < 1e-05 | > 1e-05 | > 1e-05 | – | – | O=C(O)Cc1cccc(NC(=O)c2ccc(-c3ccc(Cl)cc3Cl)o2)c1 [Compound 25, (3-{[5-(2,4-Dichloro-phenyl)-furan-2-carbonyl]-amino}-phenyl)-acetic acid]
14 | < 1e-06 | > 1e-05 | > 1e-05 | – | – | Cc1ccccc1-c1ccc(C(=O)Nc2cccc(CC(=O)O)c2)o1 [Compound 28, (3-{[5-(2-Methyl-phenyl)-furan-2-carbonyl]-amino}-phenyl)-acetic acid]
15 | < 1e-05 | > 1e-05 | > 1e-05 | – | – | O=C(O)Cc1cccc(NC(=O)c2ccc(-c3ccc(OC(F)(F)F)cc3)o2)c1 [Compound 33, (3-{[5-(4-Trifluoromethoxy-phenyl)-furan-2-carbonyl]-amino}-phenyl)-acetic acid]
16 | < 1e-05 | > 1e-05 | > 1e-05 | – | – | O=C(O)Cc1cccc(NC(=O)c2ccc(-c3ccco3)o2)c1 [Compound 38, {3-[([2,2′]Bifuranyl-5-carbonyl)-amino]-phenyl}-acetic acid]
17 | < 1e-05 | > 1e-05 | > 1e-05 | – | – | O=C(O)Cc1cccc(NC(=O)c2ccc(-c3ccccc3)s2)c1 [Compound 43, {3-[(5-Phenyl-thiophene-2-carbonyl)-amino]-phenyl}-acetic acid]
18 | < 1e-05 | > 1e-05 | > 1e-05 | – | – | O=C(O)Cc1cccc(NC(=O)c2ccc(F)c(-c3ccccc3)c2)c1 [Compound 46, {3-[(6-Fluoro-biphenyl-3-carbonyl)-amino]-phenyl}-acetic acid]
19 | < 1e-05 | > 1e-05 | > 1e-05 | – | – | O=C(O)Cc1cccc(NC(=O)c2ccc(-c3ccccc3)cc2Cl)c1 [Compound 48, {3-[(3-Chloro-biphenyl-4-carbonyl)-amino]-phenyl}-acetic acid]
20 | < 1e-05 | > 1e-05 | > 1e-05 | – | – | O=C(O)Cc1cccc(NC(=O)c2cnc(-c3ccccc3)[nH]2)c1 [Compound 53, {3-[(2-Phenyl-1H-imidazole-5-carbonyl)-amino]-phenyl}-acetic acid]
21 | < 1e-05 | > 1e-05 | > 1e-05 | – | – | O=C(O)c1cc2cc(NC(=O)c3ccc(-c4ccccc4)o3)ccc2[nH]1 [Compound 59, 5-[(5-Phenyl-furan-2-carbonyl)-amino]-1H-indole-2-carboxylic acid]
22 | < 1e-07 | – | > 1e-05 | < 0.1 | EP2 Agonist | O=C(Nc1cccc(Cc2nnn[nH]2)c1)c1ccc(-c2cccc(F)c2)o1 [Compound 86, 5-(3-Fluoro-phenyl)-furan-2-carboxylic acid [3-(1H-tetrazol-5-ylmethyl)-phenyl]-amide]
23 | < 1e-07 | > 1e-05 | > 1e-05 | – | – | O=C(O)/C=C/c1cccc(NC(=O)c2ccc(-c3cc(C(F)(F)F)cc(C(F)(F)F)c3)o2)c1 [Compound 102, 3-(3-{[5-(3,5-Bis-trifluoromethyl-phenyl)-furan-2-carbonyl]-amino}phenyl)-acrylic acid]
24 | < 1e-07 | > 1e-05 | < 1e-06 | – | – | O=C(O)/C=C/c1cccc(NC(=O)c2ccc(-c3cccc(-c4ccccc4)c3)o2)c1 [Compound 103, 3-{3-[(5-Biphenyl-3-yl-furan-2-carbonyl)-amino]-phenyl}-acrylic acid]
25 | < 1e-07 | > 1e-05 | > 1e-05 | – | – | O=C(O)/C=C/c1cccc(NC(=O)c2ccc(-c3cccc(OCc4ccccc4)c3)o2)c1 [Compound 104, 3-(3-{[5-(3-Benzyloxy-phenyl)-furan-2-carbonyl]-amino}-phenyl)-acrylic acid]
